Assay results as given in ChEMBL document CHEMBL1140018, “Synthesis and structure-activity relationship of imidazo(1,2-a)thieno(3,2-e)pyrazines as IKK-beta inhibitors” (Bioorg Med Chem Lett, 2007).

Tests used:
[1] = biological target: T1, Inhibitor of nuclear factor kappa-B kinase subunit alpha (Homo sapiens, UniProt O15111)
T1 sequence (O15111 whole entry): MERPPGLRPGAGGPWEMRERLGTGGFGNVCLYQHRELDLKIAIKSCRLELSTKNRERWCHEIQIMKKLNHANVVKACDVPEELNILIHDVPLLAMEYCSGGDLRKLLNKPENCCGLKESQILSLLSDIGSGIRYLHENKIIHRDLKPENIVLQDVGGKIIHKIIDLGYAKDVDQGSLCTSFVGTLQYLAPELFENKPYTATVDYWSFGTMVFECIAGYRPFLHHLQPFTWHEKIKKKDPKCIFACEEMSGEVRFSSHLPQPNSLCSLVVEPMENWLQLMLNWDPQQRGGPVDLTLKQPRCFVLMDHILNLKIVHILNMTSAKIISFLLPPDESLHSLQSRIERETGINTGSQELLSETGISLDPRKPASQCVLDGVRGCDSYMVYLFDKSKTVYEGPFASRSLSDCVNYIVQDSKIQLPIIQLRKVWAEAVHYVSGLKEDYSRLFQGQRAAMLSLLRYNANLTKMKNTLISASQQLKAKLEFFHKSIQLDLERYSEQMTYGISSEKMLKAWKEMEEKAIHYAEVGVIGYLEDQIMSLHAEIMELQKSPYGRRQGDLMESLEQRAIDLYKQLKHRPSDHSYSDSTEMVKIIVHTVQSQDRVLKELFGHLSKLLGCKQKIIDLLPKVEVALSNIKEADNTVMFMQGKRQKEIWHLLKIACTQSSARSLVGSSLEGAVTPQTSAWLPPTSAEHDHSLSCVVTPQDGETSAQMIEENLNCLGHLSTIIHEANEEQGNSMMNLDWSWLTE

[2] = biological target: T2, Inhibitor of nuclear factor kappa-B kinase subunit beta (Homo sapiens, UniProt O14920)
T2 sequence (O14920 whole entry): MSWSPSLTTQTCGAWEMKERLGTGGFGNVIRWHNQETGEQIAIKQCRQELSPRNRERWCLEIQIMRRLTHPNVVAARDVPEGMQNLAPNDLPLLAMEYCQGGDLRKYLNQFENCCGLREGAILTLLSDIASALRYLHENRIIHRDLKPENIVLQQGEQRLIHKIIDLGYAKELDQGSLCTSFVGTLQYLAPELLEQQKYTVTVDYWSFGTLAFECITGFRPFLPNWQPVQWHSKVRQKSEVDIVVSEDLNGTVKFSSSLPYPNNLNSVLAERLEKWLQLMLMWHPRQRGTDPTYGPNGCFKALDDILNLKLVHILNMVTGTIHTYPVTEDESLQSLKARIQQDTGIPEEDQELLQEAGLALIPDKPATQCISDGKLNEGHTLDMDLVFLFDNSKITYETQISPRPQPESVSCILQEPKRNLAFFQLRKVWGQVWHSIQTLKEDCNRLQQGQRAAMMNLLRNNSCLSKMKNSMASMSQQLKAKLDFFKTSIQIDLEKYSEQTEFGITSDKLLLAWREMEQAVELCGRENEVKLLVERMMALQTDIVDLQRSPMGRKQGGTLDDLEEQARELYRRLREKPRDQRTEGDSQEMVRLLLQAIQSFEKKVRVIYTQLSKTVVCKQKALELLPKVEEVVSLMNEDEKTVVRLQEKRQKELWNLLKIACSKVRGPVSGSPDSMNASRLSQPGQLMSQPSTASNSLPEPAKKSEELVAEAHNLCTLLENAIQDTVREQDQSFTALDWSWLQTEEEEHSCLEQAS

[3] = test system: Jurkat; assay: Inhibition of TNF-alpha-induced response in Jurkat cells; settings: Homo sapiens
[4] = Cytotoxicity against Jurkat cells by Alamar blue assay; settings: human
[5] = Tmax in mouse at 10 mg/kg, po; format: ADME, organism-based; parameters: dose 10 mg/kg, route oral; settings: in vivo
[6] = test system: Liver; assay: Metabolic stability in mouse liver microsomes; format: ADME, Microsome
[7] = test system: PBMC; assay: Inhibition of LPS-induced TNFalpha production in PBMC; format: functional, cell-based; settings: Homo sapiens
[8] = test system: Liver microsomes; assay: Metabolic stability in human liver microsomes; format: ADME, Microsome

| SMILES | IC50 [1] | IC50 [2] | EC50 [3] | CC50 ([4]; Jurkat cells) | Tmax [5] | Stability [6] | EC50 [7] | Stability [8] | CC50 ([4]; jurkat) |
| --- | --- | --- | --- | --- | --- | --- | --- | --- | --- |
| COc1nc2cc(-c3ccccc3)sc2n2c(C)cnc12 | > 100000 nM | > 1000 nM | > 100000 nM | > 100000 nM |  |  |  |  |  |
| CNc1nc2cc(-c3cccc(CC(N)C(=O)O)c3)sc2n2c(C)cnc12 (stereo unspecified) | 1260 nM | 13 nM | > 100000 nM | > 100000 nM |  |  |  |  |  |
| Cc1cnc2c(NCCN)nc3cc(-c4ccncc4)sc3n12 | 2930 nM | 270 nM | 59600 nM | > 100000 nM |  |  |  |  |  |
| Cc1cnc2c(NCCN)nc3cc(-c4ccoc4)sc3n12 | 940 nM | 29 nM | 4530 nM | > 100000 nM |  |  |  |  |  |
| Cc1cnc2c(NCCN)nc3cc(C4=NCN=C4)sc3n12 | 3860 nM | 450 nM | > 100000 nM | 38000 nM |  |  |  |  |  |
| COc1cccc(-c2cc3nc(NCCN)c4ncc(C)n4c3s2)c1 | 690 nM | 44 nM | 29200 nM | 3500 nM |  |  |  |  |  |
| CNc1nc2cc(-c3cccc(CCN)c3)sc2n2c(C)cnc12 | 650 nM | 45 nM | 6730 nM | 21000 nM |  |  |  |  |  |
| Cc1cnc2c(NCC(N)=O)nc3cc(-c4ccccc4)sc3n12 | > 25000 nM | 360 nM | > 100000 nM | > 100000 nM |  |  |  |  |  |
| CNc1nc2cc(-c3cccc(CCNC(C)=O)c3)sc2n2c(C)cnc12 | 820 nM | 21 nM | 1970 nM | > 100000 nM |  |  |  |  |  |
| CNc1nc2cc(-c3cccc(C[C@@H](N)C(N)=O)c3)sc2n2c(C)cnc12 | 190 nM | 27 nM | 690 nM | 90000 nM |  |  |  |  |  |
| CCNc1nc2cc(-c3ccccc3)sc2n2c(C)cnc12 | 1990 nM | 260 nM | 5730 nM | > 100000 nM |  |  |  |  |  |
| CNc1nc2cc(-c3cccc(CNS(N)(=O)=O)c3)sc2n2c(C)cnc12 | 170 nM | 3 nM | 270 nM | > 100000 nM | 1 h | 0.231 nmol/mg/min | 95 nM | 0.035 nmol/mg/min |  |
| Cc1cnc2c(NCCNC=O)nc3cc(-c4ccccc4)sc3n12 | 7990 nM | 230 nM | 3160 nM | > 100000 nM |  |  |  |  |  |
| Cc1cnc2c(NCCN)nc3ccsc3n12 | 12100 nM | 170 nM | > 100000 nM | > 100000 nM |  |  |  |  |  |
| CNc1nc2cc(-c3cccc(C(N)=O)c3)sc2n2c(C)cnc12 | > 30000 nM | 290 nM | 35600 nM | > 100000 nM |  |  |  |  |  |
| Cc1cnc2c(NCCN)nc3cc(-c4ccc[nH]4)sc3n12 | 1260 nM | 250 nM | 7960 nM | 7900 nM |  |  |  |  |  |
| Cc1cnc2c(NCCN(C)C)nc3cc(-c4ccccc4)sc3n12 | 1170 nM | 95 nM | > 30000 nM | > 100000 nM |  |  |  |  |  |
| Cc1cnc2c(NCCN)nc3cc(-c4cccnc4)sc3n12 | 2570 nM | 140 nM | 29500 nM | 49000 nM |  |  |  |  |  |
| Cc1cnc2c(NCCN)nc3cc(-c4cccc(CCO)c4)sc3n12 | 910 nM | 21 nM | 950 nM | 13000 nM |  |  |  |  |  |
| Cc1cnc2c(NCCN)nc3cc(-c4cn[nH]c4)sc3n12 | 1450 nM | 10 nM | 8020 nM | 46000 nM |  |  |  |  |  |
| Cc1cnc2c(NCCN)nc3cc(-c4ccccn4)sc3n12 | 1240 nM | 190 nM | > 100000 nM | 13000 nM |  |  |  |  |  |

| SMILES | IC50 [1] | IC50 [2] | EC50 [3] | CC50 ([4]; Jurkat cells) | Tmax [5] | Stability [6] | EC50 [7] | Stability [8] | CC50 ([4]; jurkat) |
| --- | --- | --- | --- | --- | --- | --- | --- | --- | --- |
| CNc1nc2cc(-c3cccc(CNC(C)=O)c3)sc2n2c(C)cnc12 | 770 nM | 38 nM | 2330 nM | > 100000 nM |  |  |  |  |  |
| CC(=O)NCCNc1nc2cc(-c3ccccc3)sc2n2c(C)cnc12 | 7030 nM | 290 nM | 10200 nM | > 100000 nM |  |  |  |  |  |
| CNc1nc2cc(C)sc2n2c(C)cnc12 | 7830 nM | 490 nM | > 30000 nM | > 100000 nM |  |  |  |  |  |
| CNc1nc2cc(-c3cccc(CCC(N)=O)c3)sc2n2c(C)cnc12 | 1210 nM | 19 nM | 810 nM | > 100000 nM |  |  |  |  |  |
| CNCCNc1nc2cc3ccccc3cc2n2c(C)cnc12 | 420 nM |  | 850 nM |  |  |  |  |  |  |
| CNc1nc2cc(-c3cccc(C(=O)O)c3)sc2n2c(C)cnc12 | 14400 nM | 190 nM | 65700 nM | > 100000 nM |  |  |  |  |  |
| Cc1cnc2c(NCCN)nc3cc(-c4ccc(CO)cc4)sc3n12 | 2330 nM | 23 nM | 40900 nM | 14000 nM |  |  |  |  |  |
| Cc1cnc2c(NCCN)nc3cc(-c4ccccc4CO)sc3n12 | 4400 nM | 130 nM | 15600 nM | > 100000 nM |  |  |  |  |  |
| Cc1cnc2c(N)nc3cc(-c4ccccc4)sc3n12 | 6500 nM | 370 nM | 17000 nM | > 100000 nM |  |  |  |  |  |
| CNc1nc2cc(-c3cccc(C[C@H](N)C(N)=O)c3)sc2n2c(C)cnc12 | 260 nM | 14 nM | 450 nM | > 100000 nM |  |  |  |  |  |
| CNc1nc2ccsc2n2c(C)cnc12 | 4120 nM | 520 nM | > 3000 nM | > 100000 nM |  |  |  |  |  |
| CNc1nc2cc(-c3cccc(CNCC(N)=O)c3)sc2n2c(C)cnc12 | 510 nM | 23 nM | 2610 nM | > 100000 nM |  |  |  |  |  |
| COc1ccccc1-c1cc2nc(NCCN)c3ncc(C)n3c2s1 | 13000 nM | 280 nM | > 100000 nM | 3500 nM |  |  |  |  |  |
| CNc1nc2cc(-c3cccc(CCC(=O)O)c3)sc2n2c(C)cnc12 | 1340 nM | < 9 nM | 4960 nM | > 100000 nM |  |  |  |  |  |
| Cc1cnc2c(NCCN)nc3cc(-c4nccs4)sc3n12 | 1110 nM | 230 nM | 18600 nM | 5900 nM |  |  |  |  |  |
| COc1ccc(-c2cc3nc(NCCN)c4ncc(C)n4c3s2)cc1 | 2800 nM | 95 nM | > 30000 nM | > 100000 nM |  |  |  |  |  |
| CNC(=O)CNCCc1cccc(-c2cc3nc(NC)c4ncc(C)n4c3s2)c1 | 1080 nM | 51 nM | 1900 nM | 50000 nM |  |  |  |  |  |
| Cc1cnc2c(NCCN)nc3cc(-c4cccc(CO)c4)sc3n12 | 450 nM | 8 nM | 2400 nM |  |  |  |  |  | 7000 nM |
| Cc1cnc2c(NCCO)nc3cc(-c4ccccc4)sc3n12 | 3480 nM | 85 nM | 7170 nM | > 100000 nM |  |  |  |  |  |
| CNc1nc2cc(-c3cccc(CCNS(N)(=O)=O)c3)sc2n2c(C)cnc12 | 440 nM | 7 nM | 920 nM | > 100000 nM |  |  |  |  |  |
